Data published in US20020037872A1, “N6 heterocyclic 5' modified adenosine derivatives” (CV Therapeutics, Inc., priority 1999, published 2002).

Tests used:
A1 adenosine receptor = target: T1, A1 adenosine receptor (Mesocricetus auratus, UniProt A0A1U8BVR4); assay: [35S]GTPγS binding assay, A1-agonist stimulated; assay type: biochemical, hamster; conditions: […], agonist stimulated [35S]GTPγS binding, CPA = 100%
T1 construct: endogenous in cells; host or cells: DDT1 (DDT1 MF-2) hamster vas deferens smooth muscle cells
T1 sequence (A0A1U8BVR4 1-326): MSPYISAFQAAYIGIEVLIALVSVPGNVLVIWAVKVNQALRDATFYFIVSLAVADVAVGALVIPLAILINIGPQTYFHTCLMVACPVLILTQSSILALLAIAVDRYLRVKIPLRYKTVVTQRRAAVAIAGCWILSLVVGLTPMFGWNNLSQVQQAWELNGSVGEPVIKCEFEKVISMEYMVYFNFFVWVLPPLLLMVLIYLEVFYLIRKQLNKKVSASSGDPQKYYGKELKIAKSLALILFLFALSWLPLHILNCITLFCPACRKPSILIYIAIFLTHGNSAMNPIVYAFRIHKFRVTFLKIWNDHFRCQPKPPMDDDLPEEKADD
In short: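 Membranes in 50 mM Tris-HCl pH 7.4, 5 mM MgCl2, 100 mM NaCl, 1 mM DTT used for A1-agonist-stimulated [35S]GTPγS binding, read by filtration. Nonspecific binding defined with 10 μM GTPγS. Saturation runs used 0.5 nM [35S]GTPγS with 0.5–1000 nM GTPγS.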

A1 receptor = target: T2, A1 receptor (Sus scrofa, UniProt I3LEN5); assay: Competitive binding assay, pig striatum membrane prep, [3H]CPX; conditions: [3H]CPX 2 nM, pig striatal membranes
T2 sequence (I3LEN5 1-326): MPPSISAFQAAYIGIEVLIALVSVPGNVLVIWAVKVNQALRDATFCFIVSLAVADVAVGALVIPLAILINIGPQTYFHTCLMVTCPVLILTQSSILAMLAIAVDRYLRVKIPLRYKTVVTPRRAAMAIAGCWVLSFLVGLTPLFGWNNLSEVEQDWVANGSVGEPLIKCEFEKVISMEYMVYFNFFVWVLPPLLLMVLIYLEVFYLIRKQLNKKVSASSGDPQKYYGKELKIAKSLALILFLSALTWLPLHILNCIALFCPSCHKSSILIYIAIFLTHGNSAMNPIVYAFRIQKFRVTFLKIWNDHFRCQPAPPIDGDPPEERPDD
Procedure: Competitive Binding Assay Pig striatum were prepared by homogenation in 50 mM Tris buffer (5× volume of tissue mass pH=7.4). After centrifilgation at 19,000 rpm for 25 minutes at 4° C., the supernatant was discarded, and the process was repeated twice. Compositions of this invention were assayed to determine their affinity for the A1 receptor in a pig striatum membrane prep or a DDT, membrane prep. Briefly, 0.2 mg of pig striatal membranes or DDT, cell membranes were treated with adenosine deaminase and 50 mM Tris buffer (pH=7.4) followed by mixing. To the pig membranes was added 2 μL of serially diluted DMSO stock solution of the compounds of this invention at concentrations ranging from 100 microM to 10 nM. The control received 2 microL of DMSO alone, then the antagonist [^3H] 8-cyclopentylxanthine (CPX) for pig striatum or the agonist [^3H] 2-chloro-6-cyclopentyladenosine (CCPA) for DDT, membranes in Tris buffer (50 mnM, pH of 7.4) was added to achieve a final concentration of 2 nM. After incubation at 23 C for 2 h, the solutions were filtered using a membrane harvester using multiple washing of the membranes (3×). The filter disks were counted in scintillation cocktail affording the amount of displacement of triated CPX or by the competitive binding compositions of this invention. […]

Compound `CNC(=O)OC[C@H]1O[C@@H](n2cnc3c(N[C@@H]4CCOC4)ncnc32)[C@H](O)[C@@H]1O` [Compound 6, (5-16[((3R)oxolan-3-yl)aminolpurin-9-yl)(3S,2R,4R,5R)-3,4dihydroxyoxolan-2yl)methoxyl-N-methylearboxamide] has an Emax (A1 adenosine receptor) of 48% and a Ki (A1 receptor) of 228 nM.
